According to US10206902B2, “Mono- or di-substituted indoles as dengue viral replication inhibitors” (priority 2014, dated 2019):

Columns and labels:
Vero cells = assay: in vitro; assay type: cell-based; details: African green monkey
Protocol: (§1) In parallel, the toxicity of the compounds was assessed on the same plates. Once the read-out for the eGFP signal was done, 10 μL of resazurin, a cell viability stain, was added to all wells of the 384-well plates. The resazurin assay is based on the reduction of the blue resazurin by NADH, produced by the cells, into the highly fluorescent product, resorufin. The formation of pink fluorescent resorufin is directly related to the number of viable cells in the well. The plates were incubated for an additional 5 hours in a fully humidified incubator (37° C., 5% CO2). Next, the plates were measured on an Infinite reader (Tecan) using an excitation wavelength of 530 nm. The half maximal cytotoxic concentration (CO50) was also determined, defined as the concentration required to reduce the resazurin conversion by 50% compared to that of the cell control wells (Table 1). Finally, the selectivity index (SI) was determined for the compounds, which was calculated as followed: SI=CC50/EC50.

[1] = Chiral stability of Enantiomer 1A at pH 7.4 (ee% by chiral SFC); assay type: physicochemical; details: buffered solution pH 7.4, 5 μM
Protocol: The chiral stability of Enantiomer 1A (R═OMe) was evaluated by determination of the enantiomeric excess (ee %) after incubation for 24 h and 48 h in a buffered solution at pH 7.4 at 40° C. and 60° C. To assess the influence of the methoxy-substituent of Enantiomer 1A (R═OMe) on the stability against racemization, the chiral stability of Enantiomer 1′A (R═H) was tested under the same conditions.
To this end, 5 μM buffered (pH=7.4) solutions of 1A and 1′A were prepared by mixing 25 μL of a 100 μM solution of 1A or 1′A in DMSO with 475 μL aqueous buffer pH 7.4. Samples were taken 24 h and 48 h after incubation at 40° C. and 60° C. The analytical samples were analyzed by Chiral SFC (MS detection) and the chiral purity was expressed as the enantiomeric excess (ee %=% enantiomer A−% enantiomer B).

uninfected Vero cells = assay: in vitro; assay type: cell-based; details: African green monkey
Protocol: Potential cytotoxic effects of the compounds were evaluated in uninfected Vero cells. Cells were seeded at 4×10^4 cells/well in a 96-well plate in the presence of two-, three- or five-fold serial dilutions (ranging from 50 μg/mL-0.0038 μg/mL, 50 μg/mL-0.0076 μg/mL, and 50 μg/mL-0.00013 μg/mL, respectively) of compound and incubated for 4 to 7 days. Culture medium was discarded and 100 μL 3-(4,5-dimethylthiazol-2-yl)-5-(3-carboxymethoxyphenyl)-2-(4-sulfophenyl)-2H-tetrazolium/phenazinemethosulfate (MTS/PMS; Promega, Leiden, The Netherlands) in PBS was added to each well. Following a 2-hour incubation period at 37° C., the optical density was determined at 498 nm. Cytotoxic activity was calculated using the following formula: % cell viability=100×(ODCompound/ODCC), where ODcompound and ODCC correspond to the optical density at 498 nm of the uninfected cell cultures treated with compound and that of uninfected, untreated cell cultures, respectively. The 50% cytotoxic concentration (i.e., the concentration that reduces the total cell number with 50%; CC50) was calculated using linear interpolation (Tables 7 and 8).

in vitro [2] = assay type: cell-based; details: African green monkey
Protocol: The antiviral activity of the compounds of the invention was tested against DENV-1 strain TC974#666 (NCPV), DENV-2 strain 16681, DENV-3 strain H87 (NCPV) and DENV-4 strains H241 (NCPV) and EDEN (SG/06K2270DK1/2005; GenBank accession number QG398256) in a RT-qPCR assay. Therefore, Vero cells were infected with either DENV-1, or -2, or -3, or -4 in the presence or absence of test compounds. At day 3 post-infection, the cells were lysed and cell lysates were used to prepare cDNA of both a viral target (the 3′UTR of DENV; table 2) and a cellular reference gene (β-actin, table 2). Subsequently, a duplex real time PCR was performed on a Lightcycler480 instrument. The generated Cp value is inversely proportional to the amount of RNA expression of these targets. Inhibition of DENV replication by a test compound result in a shift of Cp's for the 3′UTR gene. On the other hand, if a test compound is toxic to the cells, a similar effect on β-actin expression will be observed. The comparative ΔΔCp method is used to calculate EC50, which is based on the relative gene expression of the target gene (3′UTR) normalized with the cellular housekeeping gene (β-actin). In addition, CC50 values were determined based on the Cp values acquired for the housekeeping gene β-actin.
The culture medium consisted of minimal essential medium supplemented with 2% of heat-inactivated fetal calf serum, 0.04% gentamycin (50 mg/mL) and 2 mM of L-glutamine. Vero cells, obtained from ECACC, were suspended in culture medium and 75 μL/well was added in 96-well plates (10000 cells/well), which already contain the antiviral compounds. Typically, these plates contain a 4-fold serial dilution of 9 dilution steps of the test compound at 200 times the final concentration in 100% DMSO (500 nL; final concentration range: 25 μM-0.00038 μM). In addition, each plate contains wells which are assigned as virus controls (containing cells and virus in the absence of compound) and cell controls (containing cells in the absence of virus and compound). Once the cells were added in the plates, the plates were incubated in a fully humidified incubator (37° C., 5% CO2) until the next day. Then, DENV-1 strain TC974#666, DENV-2 strain 16681, DENV-3 strain H87 or DENV-4 strains H241 or EDEN were added. […] In parallel, 25 μL of culture medium was added to the cell controls. Next, the plates were incubated for 3 days in a fully humidified incubator (37° C., 5% CO2). After 3 days, the supernatant was removed from the wells and the cells were washed twice with ice-cold PBS (˜100 μL). The cell pellets within the 96-well plates were stored at −80° C. for at least 1 day. Next, RNA was extracted using the Cells-to-CT™ lysis kit, according to the manufacture's guideline (Applied Biosystems). The cell lysates can be stored at −80° C. or immediately used in the reverse transcription step. In preparation of the reverse transcription step, mix A (table 3A) was prepared and 7.57 μL/well was dispensed in a 96-well plate. After addition of 5 μL of the cell lysates, a five minute denaturation step at 75° C. was performed (table 3B). Afterwards, 7.43 μL of mix B was added (table 3C) and the reverse transcription step was initiated (table 3D) to generate cDNA.
Finally, a RT-qPCR mix was prepared, mix C (table 4A), dispensed in 96-well LightCycler qPCR plates to which 3 μL of cDNA was added and the qPCR was performed according to the conditions in table 4B on a LightCycler 480. Using the LightCycler software and an in-house LIMS system, dose response curves for each compound were calculated and the half maximal effective concentration (EC50) and the half maximal cytotoxic concentration (CO50) were determined (Tables 6-9).

in vitro [3] = assay type: cell-based; details: African green monkey, CC50
Protocol: as §1

SMILES	CC50 (Vero cells)	CC50 (uninfected Vero cells)	CC50 at 3 days (in vitro [2])	other results
COc1cc(NC(C(=O)c2c[nH]c3cc(F)ccc23)c2ccc(F)cc2OC)cc(OCCO)c1 (single isomer, unassigned) [Compound 1A, 1-(6-fluoro-1H-indol-3-yl)-2-(4-fluoro-2-methoxyphenyl)-2-((3-(2-hydroxyethoxy)-5-methoxyphenyl)amino)ethanone]	8.4 µM	–	–	ee% (enantiomeric excess) ([1]; 40° C., 24 h): 100%; ee% (enantiomeric excess) ([1]; 40° C., 48 h): 100%; ee% (enantiomeric excess) ([1]; 60° C., 24 h): 100%; ee% (enantiomeric excess) ([1]; 60° C., 48 h): 96%
COc1cc(NC(C(=O)c2c[nH]c3c(C)c(OC)ccc23)c2ccc(F)cc2OC)cc(OCCO)c1 (single isomer, unassigned) [Compound 11A, 2-(4-fluoro-2-methoxyphenyl)-2-((3-(2-hydroxyethoxy)-5-methoxyphenyl)amino)-1-(6-methoxy-7-methyl-1H-indol-3-yl)ethanone]	8.9 µM	12 µM	6.3 µM	–
COc1cc(NC(C(=O)c2c[nH]c3cc(Cl)ccc23)c2ccc(F)cc2OC)cc(OCCO)c1 (single isomer, unassigned) [Compound 4A, 1-(6-chloro-1H-indol-3-yl)-2-(4-fluoro-2-methoxyphenyl)-2-((3-(2-hydroxyethoxy)-5-methoxyphenyl)amino)ethanone]	5.9 µM	18 µM	–	–
COc1cc(NC(C(=O)c2c[nH]c3c(F)cc(C)cc23)c2ccc(F)cc2OC)cc(OCCO)c1 (single isomer, unassigned) [Compound 12B, 2-(4-fluoro-2-methoxyphenyl)-1-(7-fluoro-5-methyl-1H-indol-3-yl)-2-((3-(2-hydroxyethoxy)-5-methoxyphenyl)amino)ethanone]	5.5 µM	14 µM	5 µM	–
COc1cc(NC(C(=O)c2c[nH]c3c(C)cc(F)cc23)c2ccc(F)cc2OC)cc(OCCO)c1 (single isomer, unassigned) [Compound 9B, 2-(4-fluoro-2-methoxyphenyl)-1-(5-fluoro-7-methyl-1H-indol-3-yl)-2-((3-(2-hydroxyethoxy)-5-methoxyphenyl)amino)ethanone]	5.5 µM	14 µM	3.8 µM	–
COc1cc(NC(C(=O)c2c[nH]c3c(Cl)c(OC)ccc23)c2ccc(F)cc2OC)cc(OCCO)c1 (single isomer, unassigned) [Compound 8A, 1-(7-chloro-6-methoxy-1H-indol-3-yl)-2-(4-fluoro-2-methoxyphenyl)-2-((3-(2-hydroxyethoxy)-5-methoxyphenyl)amino)ethanone]	8.6 µM	–	10 µM	–
COc1cc(NC(C(=O)c2c[nH]c3cc(OC)c(F)cc23)c2ccc(F)cc2OC)cc(OCCO)c1 (single isomer, unassigned) [Compound 7A, 2-(4-fluoro-2-methoxyphenyl)-1-(5-fluoro-6-methoxy-1H-indol-3-yl)-2-((3-(2-hydroxyethoxy)-5-methoxyphenyl)amino)ethanone]	–	18 µM	3.8 µM	CC50 (in vitro [3]): > 8.6 µM
COc1cc(NC(C(=O)c2c[nH]c3cc(F)c(F)cc23)c2ccc(F)cc2OC)cc(OCCO)c1 (single isomer, unassigned) [Compound 10B, 1-(5,6-difluoro-1H-indol-3-yl)-2-(4-fluoro-2-methoxy-phenyl)-2-((3-(2-hydroxyethoxy)-5-methoxyphenyl)amino)ethanone]	6.9 µM	11 µM	–	–
COc1cc(NC(C(=O)c2c[nH]c3cc(OC)c(C)cc23)c2ccc(F)cc2OC)cc(OCCO)c1 (single isomer, unassigned) [Compound 6A, 2-(4-fluoro-2-methoxyphenyl)-2-((3-(2-hydroxyethoxy)-5-methoxyphenyl)amino)-1-(6-methoxy-5-methyl-1H-indol-3-yl)ethanone]	–	17 µM	–	CC50 (in vitro [3]): 7.5 µM
COc1cc(NC(C(=O)c2c[nH]c3c(F)c(F)ccc23)c2ccc(F)cc2OC)cc(OCCO)c1 (single isomer, unassigned) [Compound 5B, 1-(6,7-difluoro-1H-indol-3-yl)-2-(4-fluoro-2-methoxyphenyl)-2-((3-(2-hydroxyethoxy)-5-methoxyphenyl)amino)ethanone]	6.5 µM	11 µM	–	–
COc1cc(NC(C(=O)c2c[nH]c3c(C)c(Cl)ccc23)c2ccc(F)cc2OC)cc(OCCO)c1 (single isomer, unassigned) [Compound 3A, 1-(6-chloro-7-methyl-1H-indol-3-yl)-2-(4-fluoro-2-methoxyphenyl)-2-((3-(2-hydroxyethoxy)-5-methoxyphenyl)amino)ethanone]	–	13 µM	4.1 µM	–
COc1cc(NC(C(=O)c2c[nH]c3c(C)c(F)ccc23)c2ccc(F)cc2OC)cc(OCCO)c1 (single isomer, unassigned) [Compound 2B, 2-(4-fluoro-2-methoxyphenyl)-1-(6-fluoro-7-methyl-1H-indol-3-yl)-2-((3-(2-hydroxyethoxy)-5-methoxyphenyl)amino)ethanone]	5.3 µM	15 µM	3.6 µM	–
